Key:
Type in all cases: functional, cell-based
[1] = target: T1, Solute carrier family 22 member 7 (Homo sapiens, UniProt Q9Y694); assay: TP_TRANSPORTER: uptake in OAT2-expressing EcR293 cells
T1 sequence (Q9Y694 whole entry): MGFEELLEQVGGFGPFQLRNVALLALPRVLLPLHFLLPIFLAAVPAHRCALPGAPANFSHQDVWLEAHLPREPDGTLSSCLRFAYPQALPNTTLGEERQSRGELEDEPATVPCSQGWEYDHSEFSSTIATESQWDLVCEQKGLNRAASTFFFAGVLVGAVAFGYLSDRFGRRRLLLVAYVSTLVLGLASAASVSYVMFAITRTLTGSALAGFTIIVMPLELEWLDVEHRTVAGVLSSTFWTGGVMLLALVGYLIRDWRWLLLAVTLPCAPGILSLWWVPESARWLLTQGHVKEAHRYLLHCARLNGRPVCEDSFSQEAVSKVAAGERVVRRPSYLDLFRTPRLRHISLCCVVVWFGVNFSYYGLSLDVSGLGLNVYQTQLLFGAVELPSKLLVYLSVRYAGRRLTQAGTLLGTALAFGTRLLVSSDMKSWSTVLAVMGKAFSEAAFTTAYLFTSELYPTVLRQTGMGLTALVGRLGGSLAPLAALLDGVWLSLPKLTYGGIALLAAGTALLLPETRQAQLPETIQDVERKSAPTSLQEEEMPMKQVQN

[2] = target: T1, Solute carrier family 22 member 7; assay: TP_TRANSPORTER: inhibition of PAH uptake (alpha-KG: 500 uM) in OAT2-expressing EcR293 cells; settings: ecr293, 500 µM
[3] = target: T1, Solute carrier family 22 member 7; assay: TP_TRANSPORTER: inhibition of PAH uptake (BSP: 100 uM) in OAT2-expressing EcR293 cells; settings: ecr293, 100 µM

| Structure (SMILES) | Activity [1] | Activity [2] | Activity [3] |
| --- | --- | --- | --- |
| O=C(O)CCC(=O)C(=O)O [ALPHA-KETOGLUTARIC ACID] | substrate [+] | is not an inhibitor [-] | – |
| Nc1ccc(C(=O)NCC(=O)O)cc1 [AMINOHIPPURIC ACID] | substrate [+] | – | – |
| CN(Cc1cnc2nc(N)nc(N)c2n1)c1ccc(C(=O)N[C@@H](CCC(=O)O)C(=O)O)cc1 [METHOTREXATE] | substrate [+] | – | – |
| O=C1OC(c2ccc(O)c(S(=O)(=O)[O-])c2)(c2ccc(O)c(S(=O)(=O)[O-])c2)c2c(Br)c(Br)c(Br)c(Br)c21.[Na+].[Na+] [SULFOBROMOPHTHALEIN SODIUM] | – | – | inhibitor [+] |

Source: ChEMBL document CHEMBL2073787, “Isolation of a family of organic anion transporters from human liver and kidney” (Biochem Biophys Res Commun, 2001)
